pIC50: −log10 of the molar value. Entries after “also recorded” stand apart in the source; their conditions may differ.
What was measured:
human DDAH1 [1] = biological target: T1, human DDAH1 (Homo sapiens (Human), UniProt O94760); test: Inhibitors of human DDAH-1 validated in full dose-response curves (Table 1); type: biochemical; settings: for pIC50: Assay Explorer software
Description: (§1) Over 130,000 small molecules deposited in the Stanford High-throughput Bioscience Center (HTBC) were screened using the enzymatic assay to identify chemicals that regulate DDAH activity. In brief, recombinant human DDAH1 (rhDDAH1) was mixed with ADMA in the presence of screening buffer in 384-well plates using a Staccato multidrop. Small molecules (100 nL each) were then added to the wells using a robotic arrayer to yield a final compound screening concentration of up to 50 μM. Plates were incubated at 37° C. for 4 hours. Subsequently, color developing reagent (containing 2 volumes of Antipyrine and 1 volume of 2,3-Butanedione oxime reagents) was added using Velocity 11 system and the plates were sealed using an automated plate sealer. Finally, color was developed by incubating the plates at 60° C. for 90 minutes prior to spinning them at 1,500 rpm for 5 minutes. In this assay absorbance is proportional to the concentration of citrulline generated by DDAH, and was measured using an AnalystGT plate reader at 485 nm using a dichroic beamsplitter. The signal-to-noise ratio of separation was calculated using an established formula in Zhang. (Zhang, J. H., Chung, T. D. & Oldenburg, K. R. A Simple Statistical Parameter for Use in Evaluation and Validation of High Throughput Screening Assays. J Biomol Screen 4, 67-73 (1999)).
Inhibitors were defined as compounds that reduce absorbance by at least 30% compared to control wells. The hits were validated using 8-point full dose response study (50 μM to 0.39 μM in serial dilutions). […] To determine which of these hits were true inhibitors of DDAH activity, a modification of a validated secondary fluorometric assay was used, as described below. […]

[2] = biological target: recombinant human DDAH1 (rhDDAH1) (Homo sapiens (Human), UniProt O94760); test: Colorimetric L-citrulline assay of DDAH activity (ADMA substrate; high throughput screen and orthogonal validation); type: biochemical; settings: for pIC50: high throughput screen of library copies (BMF-6, BMF-7, BMF-8, MicroSource, LOPAC), dose-dependent inhibition
Description: (§2) The enzymatic activity of DDAH was monitored using a colorimetric assay that detects product (L-citrulline) formation from the substrate ADMA. In brief, recombinant human DDAH1 (rhDDAH1) was mixed with ADMA in the presence of screening buffer in 384-well plates. Plates were incubated at 37° C. for 4 hours. Subsequently, color developing reagent (containing 2 volumes of Antipyrine and 1 volume of 2,3-Butanedione oxime reagents) was added and the plates were incubated at 60° C. for 90 min prior to spinning them at 1,500 rpm for 5 min. In this assay absorbance is proportional to the concentration of citrulline generated by DDAH, and was measured using an AnalystGT plate reader at 485 nm using a dichroic beamsplitter.
as §2, with “ADMA, as described in Example 1.” for “ADMA.”, “antipyrine” for “Antipyrine”
The L-citrulline assay was based upon an original test-tube method developed by Prescott and Jones in 1969 (Prescott, L. M. & Jones, M. E. Modified methods for the determination of carbamyl aspartate. Anal Biochem 32, 408-419 (1969)), which was adapted and optimized for a microplate format. Subsequently, the activity of DDAH was quantified by detecting its conversion of ADMA to citrulline using the optimized protocol. The assay was scaled up to a 384-well format for high throughput chemical screening.
as §1
In brief, various amounts of rhDDAH1 (0.1 to 10 μM) were incubated with various concentrations of ADMA (1 μM to 8 mM) for various time points (30 min to 10 h) at room temperature or 37° C. […] The reactions were stopped and color was developed as described above followed by incubation at 60° C. for 90 min. Absorbance, proportional to DDAH activity, was measured at 485 nm±20 nm. In order to screen the entire library, the biochemical properties of the assay were optimized, as described above. The technique was modified so as to reduce the number of steps and facilitate robotic handling and throughput. Subsequently, HTS was performed using 384-well plates. […]

human DDAH1 [3] = biological target: T1, human DDAH1; test: Fluorimetric CPM assay of DDAH activity (SMTC substrate); type: biochemical; settings: for inhibition of DDAH activity, CPM fluorometric validation: fresh powders from vendors, vs vehicle; for pIC50: CPM assay, 100 μM SMTC, Assay Explorer software, read-out: IC50
Description: (§3) The activity of human DDAH1 was quantified using fluorimetric assay by incubating the enzyme with an artificial substrate S-methyl-thiocitrulline (SMTC). DDAH metabolizes SMTC into L-citrulline and methanethiol (CH3—SH). The thiol released from the reaction can be monitored fluorimetrically by adding 7-Diethylamino-3-(4-maleimidophenyl)-4-methylcoumarin (CPM).
as §3, with “(SMTC), as described in Example 1.” for “(SMTC).”
For the secondary assay, a fluorimetric assay that uses SMTC as a substrate was adapted. DDAH metabolizes SMTC into L-citrulline and methanethiol (CH3—SH). In brief, DDAH (30 nM final concentration) was mixed with SMTC (100 μM final concentration), CPM (50 μM final concentration) and screening buffer (containing a final concentration of 0.01% Triton-X100 and 1 mM EDTA). The reaction mix was added to black 384-well plates to validate primary hits that modulate DDAH activity. The release of CH3—SH was monitored fluorimetrically by adding 7-Diethylamino-3-(4-maleimidophenyl)-4-methylcoumarin (CPM) as described in Linsky (Linsky, T. & Fast, W. A continuous, fluorescent, high-throughput assay for human dimethylarginine dimethylaminohydrolase-1. J Biomol Screen 16, 1089-1097 (2011)).

[4] = system: human microvascular endothelial cells (HMEC-1); test: Intracellular ADMA by ELISA in endothelial cells; type: cell-based; settings: 20 μM, 24 hours, compared to vehicle control
Description: (§4) First, human microvascular endothelial cells (HMEC-1; ATCC) were seeded in 75 cm^2 cell culture flasks and cultured in fully supplemented DMEM (Invitrogen cat #11995; supplemented with 10% fetal bovine serum (FBS), 4 mM HEPES; GIBCO 15630 and penicillin/streptomycin). The cells were incubated at 37° C./5% CO2 until ˜60% confluency. The cells were then washed with phosphate buffered saline (PBS) and plain DMEM (DMEM with no addition of serum or the other supplements) was mixed with esomeprazole (20 μM final concentration from 100 mM stock) and added to the cells. […] After ˜4 hrs of incubation, the media was aspirated from each flask and the cells were cultured in fully supplemented DMEM as described above and incubated at 37° C./5% CO2 for another 20 hrs. The serum was initially withdrawn due to the possibility that esomeprazole would interact with Cys containing serum proteins and fail to internalize at effective concentrations.
After 24 hrs, the cells were harvested. Total cellular protein was estimated as described and ADMA was measured by enzyme-linked immunosorbent assay (ELISA) following the manufacturer's recommendations; DLD Diagnostika, Hamburg, Germany).
as §4, with “FBS,” for “fetal bovine serum (FBS),”, “PBS” for “phosphate buffered saline (PBS)”, “PD 404” for “esomeprazole”, “conc” for “concentration”, “The serum was initially withdrawn due to the possibility that esomeprazole would interact with Cys containing serum proteins and fail to internalize at effective concentrations.” left out
After 24 hours, the cells were harvested. Total cellular protein was estimated as described and ADMA was measured by ELISA following the manufacturer's recommendations; DLD Diagnostika, Hamburg, Germany).

[5] = fresh powders, FIG. 3, vs vehicle
[6] = 50 μM, compared to vehicle control

T1 sequence (O94760 whole entry): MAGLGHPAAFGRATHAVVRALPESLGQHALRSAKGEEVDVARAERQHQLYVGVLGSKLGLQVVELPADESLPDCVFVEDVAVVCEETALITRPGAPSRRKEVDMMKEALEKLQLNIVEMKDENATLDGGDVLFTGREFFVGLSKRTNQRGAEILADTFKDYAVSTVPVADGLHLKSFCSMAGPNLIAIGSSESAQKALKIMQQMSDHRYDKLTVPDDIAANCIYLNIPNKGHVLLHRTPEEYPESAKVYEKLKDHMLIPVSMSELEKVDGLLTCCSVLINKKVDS
Chain of recombinant human DDAH1 (rhDDAH1) (O94760 whole entry): as above

| SMILES | Hill Slope (human DDAH1 [1]) | pIC50 (human DDAH1 [1]) | also measured |
| --- | --- | --- | --- |
| COc1ccc2nc([S@@+]([O-])Cc3ncc(C)c(OC)c3C)[nH]c2c1 [Esomeprazole] | – | – | inhibition of DDAH activity, orthogonal colorimetric assay [2, 5]: significantly inhibited DDAH activity; inhibition of DDAH activity, CPM fluorometric validation (human DDAH1 [3]): inhibited DDAH activity significantly; increase in intracellular ADMA [4]: ~37% |
| O=c1[nH]sc2ccccc12 [Benzo[d]isothiazol-3(2H)-one] | 1 | 4.88 | – |
| COc1ccc2[nH]c([S+]([O-])Cc3ncc(C)c(OC)c3C)nc2n1 (centres unmarked) [Tenatoprazole] | – | – | pIC50 [2]: 5.11; inhibition of DDAH activity, CPM fluorometric validation (human DDAH1 [3]): inhibited DDAH activity significantly |
| Cc1cc(C)c2c(=O)n(CC(=O)NC(C)CCc3ccccc3)sc2n1 (centres unmarked) | 1.6 | 4.85 | – |
| Cc1cc(C)c2c(=O)n(CC(=O)NCc3ccc4c(c3)OCO4)sc2n1 | 1.5 | 4.96 | – |
| Cc1c(OCC(F)(F)F)ccnc1C[S+]([O-])c1nc2ccccc2[nH]1 (centres unmarked) [Lansoprazole] | – | – | pIC50 [2]: 4.29; inhibition of DDAH activity, CPM fluorometric validation (human DDAH1 [3]): inhibited DDAH activity significantly |
| O=C1CC(N2CCCCCC2)C(=O)N1c1cccc2ccccc12 (centres unmarked) | 1.8 | 4.88 | – |
| N/C=C1\C=C(c2ccccc2)OC1=S | 1.3 | 4.75 | – |
| COCCCOc1ccnc(C[S+]([O-])c2nc3ccccc3[nH]2)c1C (centres unmarked) [Rabeprazole] | – | – | inhibition of DDAH activity, orthogonal colorimetric assay [2, 5]: significantly inhibited DDAH activity; inhibition of DDAH activity, CPM fluorometric validation (human DDAH1 [3]): inhibited DDAH activity significantly |
| Cc1ccc(NC(=O)/C=C/C(N)=O)cc1 | 1.1 | 4.67 | – |
| N=C1Sc2ccccc2C2=NCCCN12 [PD 404] | – | – | inhibition of DDAH activity, orthogonal colorimetric assay [2, 6]: significantly inhibited DDAH activity; pIC50 [2]: 5.06; inhibition of DDAH activity, CPM fluorometric assay (human DDAH1 [3]; [6]): directly inhibit DDAH activity; also recorded: inhibited DDAH activity significantly; increase in intracellular ADMA [4]: ~84% |
| CN=c1nc(-c2ccccc2)n(-c2ccccc2)s1 [SCH-202676] | – | – | pIC50 (human DDAH1 [3]): 4.88 |
| COc1cnn(-c2ccccc2)c(=O)c1S [4-MMP, 4-mercapto-5-methoxy-2-phenyl-3(2H)-pyridazinone] | – | – | pIC50 (human DDAH1 [3]): 4.90 |
| Cc1ccc(-c2ccc(CCC(=O)O)o2)cc1 | 1.1 | 4.34 | – |
| COc1ccnc(C[S+]([O-])c2nc3cc(OC(F)F)ccc3[nH]2)c1OC (centres unmarked) [Pantoprazole] | – | – | pIC50 [2]: 4.20; inhibition of DDAH activity, CPM fluorometric validation (human DDAH1 [3]): inhibited DDAH activity significantly |
| O=c1c2ccccc2[se]n1-c1ccccc1 [ebselen] | – | – | inhibition of DDAH activity, CPM fluorometric validation (human DDAH1 [3]): confirmed known DDAH inhibitors |
| O=C(O)c1ccc(N2C(=O)C=CC2=O)cc1 | 1.6 | 4.63 | – |

The next lines start with results.

| Hill Slope (human DDAH1 [1]) | pIC50 (human DDAH1 [1]) | SMILES | also measured |
| --- | --- | --- | --- |
| 1.2 | 4.87 | Cc1cc(C)c2c(=O)n(CC(=O)NCCc3ccc(Cl)cc3)sc2n1 | – |
| 1.6 | 4.89 | Cc1cc(C)c2c(=O)n(CC(=O)NCCCSC3CCCCC3)sc2n1 | – |
| 1.7 | 4.86 | Cc1cc(C)c2c(=O)n(CC(=O)NC(C)c3ccccc3)sc2n1 (centres unmarked) | – |
| 1.7 | 5.29 | CCCCNC(=O)Cn1sc2nc(C)cc(C)c2c1=O | – |
| 2.3 | 5.15 | CCOCCCNC(=O)Cn1sc2nc(C)cc(C)c2c1=O | – |
| 1.7 | 5.07 | Cc1cc(C)c2c(=O)n(CC(=O)NC3CCCC(C)C3C)sc2n1 (centres unmarked) | – |
| 2 | 4.93 | Cc1cc(C)c2c(=O)n(CC(=O)NCCC3=CCCCC3)sc2n1 | – |
| 1.4 | 5.48 | COCCNC(=O)Cn1sc2nc(C)cc(C)c2c1=O | – |
| 0.4 | 4.40 | Cc1cc(C)c2c(=O)n(CC(=O)NCc3ccccc3Cl)sc2n1 | – |
| 1.5 | 5.00 | COc1ccc(OC)c(CCNC(=O)Cn2sc3nc(C)cc(C)c3c2=O)c1 | – |
| 1.5 | 4.98 | CCOc1ccc(CCNC(=O)Cn2sc3nc(C)cc(C)c3c2=O)cc1 | – |

From US9011882B2, “Dimethylarginine dimethylaminohydrolase inhibitors and methods of use thereof” (The Board of Trustees of the Leland Stanford Junior …, priority 2012, dated 2015)
